Data: the CheMixHub viscosity set
“And” between values parts separate entries of the source, which are not always exact repeats. Equal entries are not always repeated. ± gives the uncertainty stated by the source.

Assay: xn = mol fraction of the nth substance listed

**Q.** For `c1ccccc1` + CCCCO, which viscosity (293.15 K, 101.33 kPa, x2 = 0.2) is on record?
**A.** 0.714 ± 0.014 mPa·s and 0.714 ± 0.019 mPa·s

**Q.** What about the viscosity (293.15 K, 101.33 kPa, x2 = 0.4) of the same compound?
**A.** 0.898 ± 0.024 mPa·s

**Q.** What about the viscosity (293.15 K, 101.33 kPa, x2 = 0.5) of the same compound?
**A.** 1.054 ± 0.021 mPa·s and 1.054 ± 0.029 mPa·s

**Q.** And the viscosity (293.15 K, 101.33 kPa, x2 = 0.6)?
**A.** 1.279 ± 0.035 mPa·s

**Q.** And the viscosity (293.15 K, 101.33 kPa, x2 = 0.8)?
**A.** 1.92 ± 0.053 mPa·s

**Q.** What about the viscosity (298.15 K, 101 kPa, x1 = 0.082) of the same compound?
**A.** 2.158 ± 0.022 mPa·s

**Q.** And the viscosity (298.15 K, 101 kPa, x1 = 0.151)?
**A.** 1.88 ± 0.019 mPa·s

**Q.** What about the viscosity (298.15 K, 101 kPa, x1 = 0.254) of the same compound?
**A.** 1.511 ± 0.016 mPa·s

**Q.** What about the viscosity (298.15 K, 101 kPa, x1 = 0.345) of the same compound?
**A.** 1.277 ± 0.013 mPa·s

**Q.** What about the viscosity (298.15 K, 101 kPa, x1 = 0.52) of the same compound?
**A.** 0.919 ± 0.01 mPa·s

**Q.** And the viscosity (298.15 K, 101 kPa, x1 = 0.678)?
**A.** 0.754 ± 0.008 mPa·s

**Q.** What about the viscosity (298.15 K, 101 kPa, x1 = 0.841) of the same compound?
**A.** 0.63 ± 0.007 mPa·s

**Q.** What about the viscosity (298.15 K, 101 kPa, x1 = 0.915) of the same compound?
**A.** 0.601 ± 0.006 mPa·s

**Q.** And the viscosity (298.15 K, 101 kPa, x2 = 0.05)?
**A.** 0.604 ± 0.016 mPa·s

**Q.** And the viscosity (298.15 K, 101 kPa, x2 = 0.1)?
**A.** 0.62 ± 0.016 mPa·s

**Q.** And the viscosity (298.15 K, 101 kPa, x2 = 0.16)?
**A.** 0.64 ± 0.017 mPa·s

**Q.** What about the viscosity (298.15 K, 101 kPa, x2 = 0.21) of the same compound?
**A.** 0.664 ± 0.018 mPa·s

**Q.** What about the viscosity (298.15 K, 101 kPa, x2 = 0.41) of the same compound?
**A.** 0.842 ± 0.022 mPa·s

**Q.** What about the viscosity (298.15 K, 101 kPa, x2 = 0.51) of the same compound?
**A.** 1.006 ± 0.026 mPa·s

**Q.** What about the viscosity (298.15 K, 101 kPa, x2 = 0.61) of the same compound?
**A.** 1.178 ± 0.031 mPa·s

**Q.** What about the viscosity (298.15 K, 101 kPa, x2 = 0.81) of the same compound?
**A.** 1.684 ± 0.044 mPa·s

**Q.** What about the viscosity (298.15 K, 101.33 kPa, x2 = 0.2) of the same compound?
**A.** 0.655 ± 0.013 mPa·s

**Q.** And the viscosity (298.15 K, 101.33 kPa, x2 = 0.216)?
**A.** 0.657 ± 0.004 mPa·s

**Q.** And the viscosity (298.15 K, 101.33 kPa, x2 = 0.409)?
**A.** 0.824 ± 0.005 mPa·s

**Q.** What about the viscosity (298.15 K, 101.33 kPa, x2 = 0.604) of the same compound?
**A.** 1.119 ± 0.007 mPa·s

**Q.** And the viscosity (298.15 K, 101.33 kPa, x2 = 0.808)?
**A.** 1.71 ± 0.011 mPa·s

**Q.** And the viscosity (303 K, 101.3 kPa, x1 = 0.1035)?
**A.** 1.9 ± 0.059 mPa·s

**Q.** What about the viscosity (303 K, 101.3 kPa, x1 = 0.2024) of the same compound?
**A.** 1.601 ± 0.053 mPa·s

**Q.** What about the viscosity (303 K, 101.3 kPa, x1 = 0.3037) of the same compound?
**A.** 1.344 ± 0.048 mPa·s

**Q.** And the viscosity (303 K, 101.3 kPa, x1 = 0.4)?
**A.** 1.145 ± 0.045 mPa·s

**Q.** And the viscosity (303 K, 101.3 kPa, x1 = 0.5047)?
**A.** 0.9759 ± 0.042 mPa·s

**Q.** What about the viscosity (303 K, 101.3 kPa, x1 = 0.5931) of the same compound?
**A.** 0.8562 ± 0.041 mPa·s

**Q.** What about the viscosity (303 K, 101.3 kPa, x1 = 0.7016) of the same compound?
**A.** 0.7412 ± 0.039 mPa·s

**Q.** What about the viscosity (303 K, 101.3 kPa, x1 = 0.766) of the same compound?
**A.** 0.6921 ± 0.038 mPa·s

**Q.** What about the viscosity (303 K, 101.3 kPa, x1 = 0.8859) of the same compound?
**A.** 0.611 ± 0.037 mPa·s

**Q.** And the viscosity (303.15 K, 101 kPa, x1 = 0.082)?
**A.** 1.918 ± 0.019 mPa·s

**Q.** And the viscosity (303.15 K, 101 kPa, x1 = 0.151)?
**A.** 1.668 ± 0.017 mPa·s

**Q.** And the viscosity (303.15 K, 101 kPa, x1 = 0.254)?
**A.** 1.354 ± 0.014 mPa·s

**Q.** And the viscosity (303.15 K, 101 kPa, x1 = 0.345)?
**A.** 1.145 ± 0.012 mPa·s

**Q.** And the viscosity (303.15 K, 101 kPa, x1 = 0.52)?
**A.** 0.838 ± 0.009 mPa·s

**Q.** And the viscosity (303.15 K, 101 kPa, x1 = 0.678)?
**A.** 0.694 ± 0.007 mPa·s

**Q.** And the viscosity (303.15 K, 101 kPa, x1 = 0.841)?
**A.** 0.587 ± 0.006 mPa·s

**Q.** And the viscosity (303.15 K, 101 kPa, x1 = 0.915)?
**A.** 0.564 ± 0.006 mPa·s

**Q.** And the viscosity (303.15 K, 101.33 kPa, x2 = 0.2)?
**A.** 0.604 ± 0.016 mPa·s

**Q.** And the viscosity (303.15 K, 101.33 kPa, x2 = 0.4)?
**A.** 0.746 ± 0.02 mPa·s

**Q.** What about the viscosity (303.15 K, 101.33 kPa, x2 = 0.5) of the same compound?
**A.** 0.864 ± 0.024 mPa·s

**Q.** And the viscosity (303.15 K, 101.33 kPa, x2 = 0.6)?
**A.** 1.021 ± 0.028 mPa·s

**Q.** What about the viscosity (303.15 K, 101.33 kPa, x2 = 0.8) of the same compound?
**A.** 1.49 ± 0.041 mPa·s

**Q.** What about the viscosity (308.15 K, 101 kPa, x1 = 0.082) of the same compound?
**A.** 1.702 ± 0.017 mPa·s

**Q.** What about the viscosity (308.15 K, 101 kPa, x1 = 0.151) of the same compound?
**A.** 1.49 ± 0.015 mPa·s

**Q.** What about the viscosity (308.15 K, 101 kPa, x1 = 0.254) of the same compound?
**A.** 1.209 ± 0.012 mPa·s

**Q.** And the viscosity (308.15 K, 101 kPa, x1 = 0.345)?
**A.** 1.032 ± 0.011 mPa·s

**Q.** What about the viscosity (308.15 K, 101 kPa, x1 = 0.52) of the same compound?
**A.** 0.764 ± 0.008 mPa·s

**Q.** And the viscosity (308.15 K, 101 kPa, x1 = 0.678)?
**A.** 0.64 ± 0.007 mPa·s

**Q.** And the viscosity (308.15 K, 101 kPa, x1 = 0.841)?
**A.** 0.549 ± 0.006 mPa·s

**Q.** What about the viscosity (308.15 K, 101 kPa, x1 = 0.915) of the same compound?
**A.** 0.529 ± 0.006 mPa·s

**Q.** And the viscosity (308.15 K, 101.33 kPa, x2 = 0.2)?
**A.** 0.562 ± 0.011 mPa·s and 0.562 ± 0.015 mPa·s

**Q.** And the viscosity (308.15 K, 101.33 kPa, x2 = 0.216)?
**A.** 0.564 ± 0.003 mPa·s

**Q.** And the viscosity (308.15 K, 101.33 kPa, x2 = 0.4)?
**A.** 0.687 ± 0.019 mPa·s

**Q.** What about the viscosity (308.15 K, 101.33 kPa, x2 = 0.409) of the same compound?
**A.** 0.691 ± 0.004 mPa·s

**Q.** What about the viscosity (308.15 K, 101.33 kPa, x2 = 0.5) of the same compound?
**A.** 0.791 ± 0.016 mPa·s and 0.791 ± 0.021 mPa·s

**Q.** And the viscosity (308.15 K, 101.33 kPa, x2 = 0.6)?
**A.** 0.924 ± 0.025 mPa·s

**Q.** And the viscosity (308.15 K, 101.33 kPa, x2 = 0.604)?
**A.** 0.911 ± 0.005 mPa·s

**Q.** What about the viscosity (308.15 K, 101.33 kPa, x2 = 0.8) of the same compound?
**A.** 1.335 ± 0.036 mPa·s

**Q.** What about the viscosity (308.15 K, 101.33 kPa, x2 = 0.808) of the same compound?
**A.** 1.353 ± 0.008 mPa·s

**Q.** And the viscosity (313.15 K, 101 kPa, x1 = 0.082)?
**A.** 1.51 ± 0.015 mPa·s

**Q.** And the viscosity (313.15 K, 101 kPa, x1 = 0.151)?
**A.** 1.336 ± 0.014 mPa·s

**Q.** What about the viscosity (313.15 K, 101 kPa, x1 = 0.254) of the same compound?
**A.** 1.086 ± 0.011 mPa·s

**Q.** What about the viscosity (313.15 K, 101 kPa, x1 = 0.345) of the same compound?
**A.** 0.934 ± 0.01 mPa·s

**Q.** And the viscosity (313.15 K, 101 kPa, x1 = 0.52)?
**A.** 0.702 ± 0.007 mPa·s

**Q.** What about the viscosity (313.15 K, 101 kPa, x1 = 0.678) of the same compound?
**A.** 0.593 ± 0.006 mPa·s

**Q.** And the viscosity (313.15 K, 101 kPa, x1 = 0.841)?
**A.** 0.513 ± 0.005 mPa·s

**Q.** And the viscosity (313.15 K, 101 kPa, x1 = 0.915)?
**A.** 0.494 ± 0.005 mPa·s

**Q.** And the viscosity (318.15 K, 101 kPa, x1 = 0.082)?
**A.** 1.351 ± 0.014 mPa·s

**Q.** And the viscosity (318.15 K, 101 kPa, x1 = 0.151)?
**A.** 1.195 ± 0.012 mPa·s

**Q.** And the viscosity (318.15 K, 101 kPa, x1 = 0.254)?
**A.** 0.979 ± 0.01 mPa·s

**Q.** And the viscosity (318.15 K, 101 kPa, x1 = 0.345)?
**A.** 0.847 ± 0.009 mPa·s

**Q.** What about the viscosity (318.15 K, 101 kPa, x1 = 0.52) of the same compound?
**A.** 0.645 ± 0.006 mPa·s

**Q.** And the viscosity (318.15 K, 101 kPa, x1 = 0.678)?
**A.** 0.553 ± 0.006 mPa·s

**Q.** What about the viscosity (318.15 K, 101 kPa, x1 = 0.841) of the same compound?
**A.** 0.48 ± 0.005 mPa·s

**Q.** What about the viscosity (318.15 K, 101 kPa, x1 = 0.915) of the same compound?
**A.** 0.465 ± 0.005 mPa·s
